# Measured values as given in patent publication US10544095B2 (Pfizer Inc., priority 2015, dated 2020).
# Biological target: hTDO2 in human glioblastoma A172 cells (Homo sapiens (Human), UniProt P48775)
# Test: Cellular assay for TDO2 activity determination in A172 cells
# Format: cell-based
# Conditions: overnight incubation, kynurenine absorbance at 480 nm
# Description: The compounds of formula I inhibit the activity of human TDO2 in cells that constitutively express TDO2, such as A172 cells. A172 is a cell line derived from human brain glioblastoma cells. The cells are available from the American Type Culture Collection (ATCC®) as CRL-1620™.
# The assay (adapted from Pilotte L et al., Proc Natl Acad Sci USA, 2012, 109(7), 2497-502) was performed in 96-well flat bottom plates seeded with human glioblastoma A172 cells, naturally expressing hTDO2 (prepared as described in Tilman et al., Mol Cancer, 2007, 17(6), 80), at a concentration of 1.25×10^4 cells/well in a final volume of 200 μL. To determine TDO, the cells were incubated overnight at 37° C. at 5% CO2 in IMDM (Invitrogen) supplemented with 2% FBS and 2% penicillin/streptomycin in the presence of the compounds of the present invention, at different concentrations.
# The plates were then centrifuged 5 min at 1000 rpm, and 100 μL of the supernatant were collected in a conical plate, 30 μL of TCA 30% were added and a further centrifuged at 3000×g for 10 minutes. 100 μL of the supernatant were collected in a flat bottomed plate and 100 μL of 2% (w/v) 4-(dimethylamino)-benzaldehyde in acetic acid and incubated for 5 min at room temperature. Kynurenine concentrations were determined by measuring the absorbance at 480 nm. A standard curve was made with pure kynurenine. The TDO activity was measured as described above using ten serial concentrations of the compounds of the present invention. Data were fitted using the Prism™ software (GraphPad Software, Inc.) using standard parameters.
# Chain of hTDO2 in human glioblastoma A172 cells (P48775 whole entry): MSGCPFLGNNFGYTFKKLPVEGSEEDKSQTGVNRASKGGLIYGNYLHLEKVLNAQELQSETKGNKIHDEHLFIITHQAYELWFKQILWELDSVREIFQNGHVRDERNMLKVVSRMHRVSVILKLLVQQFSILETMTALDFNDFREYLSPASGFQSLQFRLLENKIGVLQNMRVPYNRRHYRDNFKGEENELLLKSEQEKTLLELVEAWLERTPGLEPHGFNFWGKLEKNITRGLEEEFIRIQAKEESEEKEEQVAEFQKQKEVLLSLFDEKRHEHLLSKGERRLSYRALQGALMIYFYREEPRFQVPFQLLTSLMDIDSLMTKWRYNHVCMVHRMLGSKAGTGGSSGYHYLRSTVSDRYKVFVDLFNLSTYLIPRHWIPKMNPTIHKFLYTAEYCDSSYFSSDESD
row,IC50 [nM],SMILES
1,93500,"O=S(=O)(c1ccc(-c2c[nH]c3cc(F)ccc23)cc1)N1CC[C@@H](O)[C@@H](O)C1 [Example 128, (3S,4R)-1-((4-(6-fluoro-1H-indol-3-yl)phenyl)sulfonyl)piperidine-3,4-diol]"
2,220,"N[C@H]1CN(C(=O)CCNS(=O)(=O)c2ccc(-c3c[nH]c4cc(F)ccc34)cc2)C[C@@H]1F [Example 105, (−)-N-(3-((3S,4S)-3-amino-4-fluoropyrrolidin-1-yl)-3-oxopropyl)-4-(6-fluoro-1H-indol-3-yl)benzenesulfonamide]"
3,7510,"NS(=O)(=O)c1cc(Cl)c(-c2c[nH]c3cc(F)ccc23)c(Cl)c1 [Example 137, 3,5-dichloro-4-(6-fluoro-H-indol-3-yl)-benzenesulfonamide]"
4,380,"O=C1CN(S(=O)(=O)c2ccc(-c3c[nH]c4cc(F)ccc34)cc2)CCN1C[C@@H](O)CO [Example 146, (R)-1-(2,3-dihydroxypropyl)-4-((4-(6-fluoro-1H-indol-3-yl)phenyl)sulfonyl)piperazin-2-one]"
5,190,"COc1cc(-c2c[nH]c3cc(F)ccc23)ccc1S(=O)(=O)N1CCNCC1 [Example 29, 6-fluoro-3-(3-methoxy-4-(piperazin-1-ylsulfonyl)-phenyl)-1H-indole]"
6,170,"O=S(=O)(c1ccc(-c2c[nH]c3cc(F)ccc23)cc1)N1CC(CO)C1 [Example 63, (1-((4-(6-fluoro-1H-indol-3-yl)phenyl)sulfonyl)-azetidin-3-yl)methanol]"
7,1000,"CS(=O)(=O)N1CCN(S(=O)(=O)c2ccc(-c3c[nH]c4cc(F)ccc34)cc2)CC1 [Example 19, 6-fluoro-3-(4-((4-(methylsulfonyl)piperazin-1-yl)sulfonyl)phenyl)-1H-indole]"
8,110,"N[C@@H]1CN(S(=O)(=O)c2ccc(-c3c[nH]c4cc(F)ccc34)cc2)C[C@@H]1F [Example 83, (−)-(cis)-4-fluoro-1-((4-(6-fluoro-1H-indol-3-yl)-phenyl)sulfonyl)-pyrrolidin-3-amine]"
9,5930,"CC(C)Cc1cc(-c2c[nH]c3cc(F)ccc23)ccc1S(=O)(=O)NCCC(N)=O [Example 164, 3-((4-(6-fluoro-1H-indol-3-yl)-2-isobutylphenyl)-sulfonamido)propanamide]"
10,360,"Cc1noc(CCNS(=O)(=O)c2ccc(-c3c[nH]c4cc(F)ccc34)cc2)n1 [Example 59, 4-(6-fluoro-1H-indol-3-yl)-N-(2-(3-methyl-1,2,4-oxadiazol-5-yl)-ethyl)benzenesulfonamide]"
11,450,"Cc1cc(-c2c[nH]c3cc(F)ccc23)cc(C)c1S(=O)(=O)N1CCNCC1 [Example 71, 3-(3,5-dimethyl-4-(piperazin-1-ylsulfonyl)phenyl)-6-fluoro-1H-indole]"
12,300,"O=S(=O)(NCCc1c[nH]nn1)c1ccc(-c2c[nH]c3cc(F)ccc23)cc1 [Example 72, N-(2-(1H-1,2,3-triazol-4-yl)ethyl)-4-(6-fluoro-1H-indol-3-yl)benzenesulfonamide]"
13,90000,"Cc1nccn1CC1(O)CCN(S(=O)(=O)c2ccc(-c3c[nH]c4cc(F)ccc34)cc2)C1 (stereo not drawn) [Example 131, 1-((4-(6-fluoro-1H-indol-3-yl)phenyl)sulfonyl)-3-((2-methyl-1H-imidazol-1-yl)methyl)pyrrolidin-3-ol]"
14,220,"Cc1nc(CCNS(=O)(=O)c2ccc(-c3c[nH]c4cc(F)ccc34)cc2)c[nH]1 [Example 161, 4-(6-fluoro-1H-indol-3-yl)-N-(2-(2-methyl-1H-imidazol-4-yl)ethyl)benzenesulfonamide]"
15,1800,"Cn1nccc1NS(=O)(=O)c1ccc(-c2c[nH]c3cc(F)ccc23)cc1 [Example 91, 4-(6-fluoro-1H-indol-3-yl)-N-(1-methyl-1H-pyrazol-5-yl)benzenesulfonamide]"
16,85500,"O=C1CCCN1CC1(O)CCN(S(=O)(=O)c2ccc(-c3c[nH]c4cc(F)ccc34)cc2)C1 (stereo not drawn) [Example 127, 1-((1-((4-(6-fluoro-1H-indol-3-yl)phenyl)sulfonyl)-3-hydroxypyrrolidin-3-yl)methyl)pyrrolidin-2-one]"
17,510,"O=S(=O)(c1ccc(-c2c[nH]c3cc(F)ccc23)cc1C(F)(F)F)N1CCNCC1 [Example 24, 6-fluoro-3-(4-(piperazin-1-ylsulfonyl)-3-(trifluoromethyl)-phenyl)-1H-indole]"
18,441,"O=C1CN(S(=O)(=O)c2ccc(-c3c[nH]c4cc(F)ccc34)cc2)CCN1C[C@H](O)CO [Example 147, (S)-1-(2,3-dihydroxypropyl)-4-((4-(6-fluoro-1H-indol-3-yl)phenyl)sulfonyl)piperazin-2-one]"

row,IC50 [nM],SMILES
1,3160,"CN(C)C(=O)Cc1cc(-c2c[nH]c3cc(F)ccc23)ccc1S(N)(=O)=O [Example 138, 2-(5-(6-fluoro-1H-indol-3-yl)-2-sulfamoylphenyl)-N,N-dimethylacetamide]"
2,97,"O=S(=O)(c1ccc(-c2c[nH]c3cc(F)ccc23)cc1)N1C[C@H](F)C[C@@H]1CO [Example 125, ((2R,4R)-4-fluoro-1-((4-(6-fluoro-1H-indol-3-yl)phenyl)sulfonyl)pyrrolidin-2-yl)methanol]"
3,440,"O=c1[nH]nc(CCNS(=O)(=O)c2ccc(-c3c[nH]c4cc(F)ccc34)cc2)o1 [Example 48, 4-(6-fluoro-1H-indol-3-yl)-N-(2-(5-oxo-4,5-dihydro-1,3,4-oxadiazol-2-yl)ethyl)benzenesulfonamide]"
4,3900,"Cc1cc(-c2c[nH]c3cc(F)ccc23)cc(S(=O)(=O)NCCN)c1 [Example 30, N-(2-aminoethyl)-3-(6-fluoro-1H-indol-3-yl)-5-methyl-benzenesulfonamide]"
5,123,"O=S(=O)(c1ccc(-c2c[nH]c3cc(F)ccc23)cc1)N1CCC(O)(c2ccncn2)C1 (stereo not drawn) [Example 119, 1-((4-(6-fluoro-1H-indol-3-yl)phenyl)sulfonyl)-3-(pyrimidin-4-yl)pyrrolidin-3-ol]"
6,18000,"NC(=O)n1cc(-c2ccc(S(=O)(=O)N3CCNCC3)cc2)c2ccc(F)cc21 [Example 78, 6-fluoro-3-(4-(piperazin-1-ylsulfonyl)phenyl)-1H-indole-1-carboxamide]"
7,1210,"O=C(CCNS(=O)(=O)c1ccc(-c2c[nH]c3cc(F)ccc23)cc1)N1C[C@@H](O)[C@H](O)C1 [Example 170, (+)-N-(3-((3R,4R)-3,4-dihydroxypyrrolidin-1-yl)-3-oxopropyl)-4-(6-fluoro-1H-indol-3-yl) benzenesulfonamide]"
8,90500,"Cn1nccc1C1(O)CCN(S(=O)(=O)c2ccc(-c3c[nH]c4cc(F)ccc34)cc2)C1 (stereo not drawn) [Example 113, 1-((4-(6-fluoro-1H-indol-3-yl)phenyl)sulfonyl)-3-(1-methyl-1H-pyrazol-5-yl)pyrrolidin-3-ol]"
9,570,"NCCN1CCN(S(=O)(=O)c2ccc(-c3c[nH]c4cc(F)ccc34)cc2)CC1=O [Example 148, 1-(2-aminoethyl)-4-((4-(6-fluoro-1H-indol-3-yl)phenyl)sulfonyl)piperazin-2-one]"
10,89,"O=S(=O)(c1ccc(-c2c[nH]c3cc(F)ccc23)cc1)N1CCOCC(O)C1 (stereo not drawn) [Example 118, 4-((4-(6-fluoro-1H-indol-3-yl)phenyl)sulfonyl)-1,4-oxazepan-6-ol]"
11,96,"O=S(=O)(c1ccc(-c2c[nH]c3cc(F)ccc23)cc1)N1CC[C@@H](O)[C@H](O)C1 [Example 130, (3R,4R)-1-((4-(6-fluoro-1H-indol-3-yl)phenyl)sulfonyl)piperidine-3,4-diol]"
12,92000,"O=S(=O)(c1ccc(-c2c[nH]c3cc(F)ccc23)cc1)N1C[C@H](F)[C@@H](O)[C@H](O)[C@H]1CO [Example 129, (2R,3R,4S,5S)-5-f1uoro-1-((4-(6-fluoro-1H-indol-3-yl)phenyl)sulfonyl)-2-(hydroxymethyl) piperidine-3,4-diol]"
13,250,"O=S(=O)(c1ccc(-c2c[nH]c3ccccc23)cc1)N1CCNCC1 [Example 20, 3-(4-(piperazin-1-ylsulfonyl)phenyl)-1H-indole]"
14,160,"CN(CCC(N)=O)S(=O)(=O)c1ccc(-c2c[nH]c3cc(F)ccc23)cc1 [Example 27, 3-(4-(6-fluoro-1H-indol-3-yl)-N-methylphenylsulfonamido)-propanamide]"
15,140,"O=S(=O)(NC1CNC1)c1ccc(-c2c[nH]c3cc(F)ccc23)cc1 [Example 68, N-(azetidin-3-yl)-4-(6-fluoro-1H-indol-3-yl)benzenesulfonamide]"
16,210,"O=S(=O)(N[C@@H]1CCOC1)c1ccc(-c2c[nH]c3cc(F)ccc23)cc1 [Example 55, (R)-4-(6-fluoro-1H-indol-3-yl)-N-(tetrahydrofuran-3-yl)-benzenesulfonamide]"
17,100,"CNS(=O)(=O)CCN(C)S(=O)(=O)c1ccc(-c2c[nH]c3cc(F)ccc23)cc1 [Example 100, 4-(6-fluoro-1H-indol-3-yl)-N-methyl-N-[2-(methylsulfamoyl)ethyl]benzenesulfonamide]"

row,SMILES,IC50 [nM]
1,"CN(C)CCc1cc(-c2c[nH]c3cc(F)ccc23)ccc1S(N)(=O)=O [Example 141, 2-(2-(dimethylamino)ethyl)-4-(6-fluoro-1H-indol-3-yl)benzenesulfonamide]",295
